# “And” between values parts separate entries of the source, which are not always exact repeats. Equal entries are not always repeated. Where two headings read alike, the source gives them in different places.
# What was measured:
# Ba/F3-CCDC6::RET^S904F = assay: Growth inhibition assay in Ba/F3 cells (CellTiter-Glo, 72 h); type: cell-based
# ECLC5B cells = assay: Growth inhibition (alamarBlue, 96 h); type: cell-based, human; details: for raw viability signal (Source Data Fig. 3b-c): ECLC5B, replicates
# Ba/F3 cells = assay: Growth inhibition assay in Ba/F3 cells (CellTiter-Glo, 72 h); type: cell-based; details: replicate Sets 1-3
# LUAD-0087AS2 PDX = assay: PDX efficacy study; details: pralsetinib 30 mg/kg BID
# [1] = test system: HBECp53-RET cells (CCDC6-RET fusion); assay: Growth inhibition (alamarBlue, 96 h); type: cell-based, human; details: for raw viability signal (Source Data Fig. 3b-c): HBEC-RET, replicate sets
# LUAD-0002AS1 cells = assay: Growth inhibition (alamarBlue, 96 h); type: cell-based, human; details: for raw viability signal (Source Data Fig. 3b-c): LUAD-0002AS1, replicate sets
# TT cells (RET C634W) = assay: Dose-response western blotting, EC50 for inhibition of protein phosphorylation; type: cell-based; details: Homo sapiens
# LC-2/ad cells = assay: Growth inhibition (alamarBlue, 96 h); type: cell-based, human; details: for raw viability signal (Source Data Fig. 3b-c): LC-2/Ad, replicate sets
# [2] = test system: Ba/F3 KIF5B–RET^G810R allograft tumors; assay: Subcutaneous allograft efficacy study; type: in vivo, BALB/c nude mice; details: in mm³ (unit assumed);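 note: mean tumor volume per dosing group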
# LUAD-0057BS1 cells = assay: Growth inhibition (alamarBlue, 96 h); type: cell-based, human; details: for raw viability signal (Source Data Fig. 3b-c): LUAD-0057BS1, replicate sets
# [3] = Transcellular transport study, apparent permeability; details: pig, LLC-PK1
# [4] = test system: Ba/F3 cells expressing KIF5B–RET^G810S; assay: Growth inhibition assay in Ba/F3 cells (CellTiter-Glo, 72 h); type: cell-based; details: Ba/3-KIF5B-RET-G810S; replicate Sets 1-3
# [5] = test system: Ba/F3 cells expressing KIF5B–RET^WT; assay: as above; type: cell-based; details: replicate sets
# TT cells = assay: Growth inhibition (alamarBlue, 96 h); type: cell-based, human; details: for raw viability signal (Source Data Fig. 3b-c): replicate sets
# LUAD-0087AS2 cells = assay: Growth inhibition (alamarBlue, 96 h); type: cell-based, human; details: for raw viability signal (Source Data Fig. 3b-c): LUAD-0087AS2, replicate sets
# [6] = Homo sapiens, 96 h, read-out: IC50 for Inhibition of Growth (95% CI)
structure (smiles),measurement,setting,value
CO[C@]1(C(=O)N[C@@H](C)c2ccc(-n3cc(F)cn3)nc2)CC[C@H](c2nc(C)cc(Nc3cc(C)[nH]n3)n2)CC1 [Pralsetinib],GI50,"Ba/F3-CCDC6::RET^S904F; BaF3/CCDC6-RET, read-out: GI50 values, Ba/F3-CCDC6::RET S904F, individual sets (replicate experiments)",6.22 nM
same,GI50,"Ba/F3-CCDC6::RET^S904F; Mus musculus, BaF3, 72 h, read-out: GI50 value (Mean ± SD), Ba/F3-CCDC6::RET^S904F, CellTiter-Glo, 72 h",6.02 ± 1.69 nM
same,GI50,"Ba/F3-CCDC6::RET^S904F; read-out: GI50 values, Ba/F3-CCDC6::RET S904F, individual sets (replicate experiments)",7.61 nM and 4.24 nM
same,raw viability signal (Source Data Fig. 3b-c),ECLC5B cells; 0.01 nM,11159.3 and 6334.79 and 21867.4
same,raw viability signal (Source Data Fig. 3b-c),ECLC5B cells; 0.1 nM,11498.4 and 7246.25 and 22158.4
same,raw viability signal (Source Data Fig. 3b-c),ECLC5B cells; 1 nM,11273.5 and 6357.98 and 19717.2
same,raw viability signal (Source Data Fig. 3b-c),ECLC5B cells; 10 nM,5160.26 and 1378.73 and 8133.57
same,raw viability signal (Source Data Fig. 3b-c),ECLC5B cells; 100 nM,2920.41 and 1318.47 and 4448.62
same,raw viability signal (Source Data Fig. 3b-c),ECLC5B cells; 1000 nM,1849.04 and 1272.17 and 3256.96
same,raw viability signal (Source Data Fig. 3b-c),ECLC5B cells; 10000 nM,1438.61 and 1223.5 and 2843.35
same,IC50,ECLC5B cells; [6],6 nM
same,GI50,Ba/F3 cells; Ba/F3 (parental),1420 nM
same,GI50,"Ba/F3 cells; Mus musculus, BaF3, Ba/F3 (parental)",1070 nM
same,Change in tumor volume (% from base line),"LUAD-0087AS2 PDX; Fig. 6a LUAD-0087AS2, individual animals",-36.557% and -40.331% and -44.442% and -50.767%
same,Area Under Curve Mean,LUAD-0087AS2 PDX; Fig. 6a LUAD-0087AS2 tumor growth,-1718
same,raw viability signal (Source Data Fig. 3b-c),[1]; 0.01 nM,15373.7 and 12510.4 and 10530.7 and 16787.4
same,raw viability signal (Source Data Fig. 3b-c),[1]; 0.1 nM,15070.3 and 13088.9 and 11587.4 and 17702.2
same,raw viability signal (Source Data Fig. 3b-c),[1]; 1 nM,15214.6 and 13110.8 and 10795 and 16054.2
same,raw viability signal (Source Data Fig. 3b-c),[1]; 10 nM,6804.19 and 10276.4 and 9347.81 and 15758.2
same,raw viability signal (Source Data Fig. 3b-c),[1]; 100 nM,3516.93 and 4294.46 and 3038.53 and 6985.58
same,raw viability signal (Source Data Fig. 3b-c),[1]; 1000 nM,2132.67 and 2668.84 and 1165.86 and 3483.36
same,raw viability signal (Source Data Fig. 3b-c),[1]; 10000 nM,830.793 and 1030.6 and 876.114 and 1589.72
same,IC50,"[1]; Homo sapiens, 96 h, read-out: IC50 for Inhibition of Growth (95% CI), HBECp53-RET, alamarBlue, 96 h",35 nM
same,IC50,LUAD-0002AS1 cells; [6],4 nM
same,raw viability signal (Source Data Fig. 3b-c),LUAD-0002AS1 cells; 0.01 nM,15231.7 and 11282.9 and 12487.7
same,raw viability signal (Source Data Fig. 3b-c),LUAD-0002AS1 cells; 0.1 nM,13433.7 and 11365.6 and 12797.1
same,raw viability signal (Source Data Fig. 3b-c),LUAD-0002AS1 cells; 1 nM,14274.6 and 7102.45 and 10515
same,raw viability signal (Source Data Fig. 3b-c),LUAD-0002AS1 cells; 10 nM,5412.04 and 2878.75 and 4059.15
same,raw viability signal (Source Data Fig. 3b-c),LUAD-0002AS1 cells; 100 nM,2211.78 and 2052.44 and 2966.29
same,raw viability signal (Source Data Fig. 3b-c),LUAD-0002AS1 cells; 1000 nM,1138.02 and 1548.13 and 2436.62
same,raw viability signal (Source Data Fig. 3b-c),LUAD-0002AS1 cells; 10000 nM,935.955 and 1429.45 and 2173.09
same,EC50,"TT cells (RET C634W); read-out: EC50 for Inhibition of Protein Phosphorylation (95% CI), AKT S473, 2 h, densitometry",1.5 nM
same,EC50,"TT cells (RET C634W); read-out: EC50 for Inhibition of Protein Phosphorylation (95% CI), ERK1/2 T202/Y204, 2 h, densitometry",2 nM
same,EC50,"TT cells (RET C634W); read-out: EC50 for Inhibition of Protein Phosphorylation (95% CI), MEK1/2 S217/S221, 2 h, densitometry",4.3 nM
same,EC50,"TT cells (RET C634W); read-out: EC50 for Inhibition of Protein Phosphorylation (95% CI), P70 RSK T421/S424, 2 h, densitometry",0.4 nM
same,EC50,"TT cells (RET C634W); read-out: EC50 for Inhibition of Protein Phosphorylation (95% CI), RET Y905, 2 h, densitometry",1 nM
same,EC50,"TT cells (RET C634W); read-out: EC50 for Inhibition of Protein Phosphorylation (95% CI), S6RP S235/S236, 2 h, densitometry",0.7 nM
same,IC50,"LC-2/ad cells; Homo sapiens, LC-2-ad, 96 h, read-out: IC50 for Inhibition of Growth (95% CI)",18 nM
same,raw viability signal (Source Data Fig. 3b-c),LC-2/ad cells; 0.01 nM,14336.4 and 23167.3
same,raw viability signal (Source Data Fig. 3b-c),LC-2/ad cells; 0.1 nM,14242.4 and 23367.8
same,raw viability signal (Source Data Fig. 3b-c),LC-2/ad cells; 1 nM,13261.9 and 22232.1
same,raw viability signal (Source Data Fig. 3b-c),LC-2/ad cells; 10 nM,6314.77 and 17508.9
same,raw viability signal (Source Data Fig. 3b-c),LC-2/ad cells; 100 nM,3979.18 and 8357.34
same,raw viability signal (Source Data Fig. 3b-c),LC-2/ad cells; 1000 nM,2225.01 and 2896.43
same,raw viability signal (Source Data Fig. 3b-c),LC-2/ad cells; 10000 nM,918.728 and 947.198
same,Tumor Volume Mean,"[2]; Fig. 7c Ba/F3-KIF5B::RET G810R, pralsetinib 10 mg/kg BID, day 1",154.09
same,Tumor Volume Mean,"[2]; Fig. 7c Ba/F3-KIF5B::RET G810R, pralsetinib 10 mg/kg BID, day 4",213.90
same,Tumor Volume Mean,"[2]; Fig. 7c Ba/F3-KIF5B::RET G810R, pralsetinib 10 mg/kg BID, day 8",315.85
same,Tumor Volume Mean,"[2]; Fig. 7c Ba/F3-KIF5B::RET G810R, pralsetinib 10 mg/kg BID, day 11",472.80
same,Tumor Volume Mean,"[2]; Fig. 7c Ba/F3-KIF5B::RET G810R, pralsetinib 10 mg/kg BID, day 15",1059.21
same,Tumor Volume Mean,"[2]; Fig. 7d Ba/F3-KIF5B::RET G810R, pralsetinib 30 mg/kg BID, day 1",163.0
same,Tumor Volume Mean,"[2]; Fig. 7d Ba/F3-KIF5B::RET G810R, pralsetinib 30 mg/kg BID, day 4",312.7
same,Tumor Volume Mean,"[2]; Fig. 7d Ba/F3-KIF5B::RET G810R, pralsetinib 30 mg/kg BID, day 8",411.9
same,Tumor Volume Mean,"[2]; Fig. 7d Ba/F3-KIF5B::RET G810R, pralsetinib 30 mg/kg BID, day 11",562.8
same,Tumor Volume Mean,"[2]; Fig. 7d Ba/F3-KIF5B::RET G810R, pralsetinib 30 mg/kg BID, day 15",747.9
same,IC50,LUAD-0057BS1 cells; [6],36 nM
same,raw viability signal (Source Data Fig. 3b-c),LUAD-0057BS1 cells; 0.01 nM,16595.3 and 17181.3 and 21729.4
same,raw viability signal (Source Data Fig. 3b-c),LUAD-0057BS1 cells; 0.1 nM,16479.6 and 19958 and 20455.1
same,raw viability signal (Source Data Fig. 3b-c),LUAD-0057BS1 cells; 1 nM,16334.3 and 18804.2 and 20595.3
same,raw viability signal (Source Data Fig. 3b-c),LUAD-0057BS1 cells; 10 nM,13376 and 14580.9 and 14292.2
same,raw viability signal (Source Data Fig. 3b-c),LUAD-0057BS1 cells; 100 nM,5525.42 and 5782.49 and 4569.11
same,raw viability signal (Source Data Fig. 3b-c),LUAD-0057BS1 cells; 1000 nM,1800.25 and 2058.52 and 1619.82
same,raw viability signal (Source Data Fig. 3b-c),LUAD-0057BS1 cells; 10000 nM,968.48 and 1261.32 and 1236.21
same,"Papp at 3 h, 1 μM",[3],14.3 ×10⁻⁶ cm/s
same,GI50,[4],26.2 nM and 86 nM and 39.5 nM
same,GI50,[5]; Ba/3-KIF5B-RET,7.33 nM and 4.09 nM
same,GI50,"[5]; Mus musculus, BaF3, Ba/3-KIF5B-RET",8.11 nM
same,raw viability signal (Source Data Fig. 3b-c),TT cells; 0.01 nM,22929.2 and 25490.7 and 28433.6 and 13300.2 and 25151.2
same,raw viability signal (Source Data Fig. 3b-c),TT cells; 0.1 nM,22974.2 and 25164.4 and 33337.3 and 15066.6 and 24111.4
same,raw viability signal (Source Data Fig. 3b-c),TT cells; 1 nM,21557.9 and 25049.8 and 31833.5 and 13551.8 and 21692.4
same,raw viability signal (Source Data Fig. 3b-c),TT cells; 10 nM,15259.3 and 23182.3 and 22444.5 and 12016.9 and 18286.5
same,raw viability signal (Source Data Fig. 3b-c),TT cells; 100 nM,9067.36 and 11673.9 and 13386.9 and 6206.3 and 13339.4
same,raw viability signal (Source Data Fig. 3b-c),TT cells; 1000 nM,7976.19 and 8542.52 and 11087 and 4402.24 and 11387.8
same,raw viability signal (Source Data Fig. 3b-c),TT cells; 10000 nM,7016.43 and 7739.61 and 10148.3 and 3836.13 and 9483.47
same,IC50,TT cells; [6],30 nM
same,IC50,LUAD-0087AS2 cells; [6],24 nM
same,raw viability signal (Source Data Fig. 3b-c),LUAD-0087AS2 cells; 0.01 nM,10767.7 and 15151.6 and 17255.6 and 15692.7
same,raw viability signal (Source Data Fig. 3b-c),LUAD-0087AS2 cells; 0.1 nM,11083.5 and 15670.9 and 15636 and 16225.5
same,raw viability signal (Source Data Fig. 3b-c),LUAD-0087AS2 cells; 1 nM,10977.2 and 15832.3 and 16084.8 and 16863
same,raw viability signal (Source Data Fig. 3b-c),LUAD-0087AS2 cells; 10 nM,7788.62 and 8365.43 and 13487.5 and 12530.5
same,raw viability signal (Source Data Fig. 3b-c),LUAD-0087AS2 cells; 100 nM,2806.08 and 5716.79 and 2099.37 and 2602.78
same,raw viability signal (Source Data Fig. 3b-c),LUAD-0087AS2 cells; 1000 nM,2132.43 and 5081.65 and 1620.29 and 1608.1
same,raw viability signal (Source Data Fig. 3b-c),LUAD-0087AS2 cells; 10000 nM,2211.28 and 4121.33 and 1386.59 and 1376.18

# Reference: PMC10518257 (Nature Cancer, 2023)
